Results from US9227923B2, “Pesticidal carboxamides” (Bayer Intellectual Property GmbH, priority 2009, dated 2016).

What was measured:
[1] = system: Tobacco Cutworm (Spodoptera litura) Larvae; assay: Test against tobacco cutworm (Spodoptera litura) larvae, leaf dip; format: in vivo; conditions: active compound concentration of 100 ppm, third instar larvae, after 7 days; for pest or weed control at 100 ppm: Spodoptera litura, foliar, 168 h, read-out: insecticidal activity
Summary of the method: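 Sweet potato leaves were dipped in the test solution (DMF solvent, polyoxyethylene alkyl phenyl ether emulsifier), air-dried and offered to ten third-instar larvae per dish at 25 °C, with fresh leaves added on days 2 and 4. Mortality was counted at day 7 and expressed as % insecticidal activity (100% = all dead).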

[2] = system: Two-Spotted Spider Mite (Tetranychus Urticae); assay: Test against two-spotted spider mite (Tetranychus urticae), spray; format: in vivo; conditions: active compound concentration of 100 ppm; adult mites; after 7 days
Source text: Solvent: 3 parts by weight of dimethylformamide
Emulsifier: 1 part by weight of polyoxyethylene alkyl phenyl ether

[3] = system: Cucurbit Leaf Beetle (Aulacophora Femoralis); assay: Test against cucurbit leaf beetle (Aulacophora femoralis), leaf dip; format: in vivo; conditions: active compound concentration of 100 ppm, second instar larvae, after 7 days; for pest or weed control at 100 ppm: Aulacophora, foliar, 168 h, read-out: insecticidal activity
Summary of the method: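 Cucumber leaves dipped in compound solution (DMF solvent, polyoxyethylene alkyl phenyl ether emulsifier), air-dried, and placed with five second-instar larvae in cups on sterilized soil at 25° C. Dead larvae counted after 7 days; activity expressed as percent larvae killed.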

Boophilus microplus = Boophilus microplus test (injection); format: in vivo; conditions: Rhipicephalus microplus, 168 h, read-out: activity (mortality in %; 100% means that all eggs are infertile)
Procedure: (§1) Solvent: dimethyl sulfoxide
Five adult engorged female ticks (Boophilus microplus) are injected with […] compound solution into the abdomen. Ticks are transferred into replica plates and incubated in a climate chamber for a period of time. Egg deposition of fertile eggs is monitored.
After 7 days mortality in % is determined. 100% means that all eggs are infertile; 0% means that all eggs are fertile. […]

Ctenocephalides felis = assay: whole plant or invertebrate; format: in vivo; conditions: for mortality at 100 ppm: Ctenocephalides felis, in Bos taurus, 48 h, read-out: activity (mortality in %); for activity (mortality in %): application rate of 100 ppm in cattle blood, after 2 days
Procedure: as §1
Approximately 20 adult unfed (Ctenocepahlides felis) are placed in flea chambers. […] The blood chamber is heated to 37° C. whereas the flea chamber is kept at room temperature.

[4] = system: Lucilia cuprina 1st instar larvae; assay: whole plant or invertebrate; format: in vivo; conditions: for mortality at 100 ppm: Lucilia cuprina, 48 h, read-out: activity (percentage of larval mortality); for activity (percentage of larval mortality): application rate of 100 ppm, after 48 hrs
Procedure: species: Lucilia cuprina 1st instar larvae (age 24 hrs)
solvent: dimethyl sulfoxide
Serial dilutions are made to obtain the desired rates. Approximately 20 Lucilia cuprina 1st instar larvae are transferred into a test tube containing 1 cm^3 of minced horse meat and 0.5 ml aqueous dilution of test compound. After 48 hrs percentage of larval mortality are recorded. 100% efficacy=all larvae are killed, […].

Musca domestica = assay: whole plant or invertebrate; conditions: 48 h, read-out: activity (mortality in %)
Procedure: as §1
Prior to the assay, a piece of kitchen sponge is soaked with a mixture of sugar and compound solution and placed into a container. 10 adults (Musca domestica) are placed into the container and closed with a perforated lid. After 2 days mortality in % is determined 100% means that all the flies have been killed; 0% means that none of the flies have been killed.

| SMILES | pest or weed control at 100 ppm [1] [%] | acaricidal activity [2] [%] | pest or weed control at 100 ppm [3] [%] | mortality at 0.02 mg (Boophilus microplus) [%] | mortality at 100 ppm (Ctenocephalides felis) [%] | mortality at 100 ppm [4] [%] | insecticidal activity [1] [%] | insecticidal activity [3] [%] | activity (percentage of larval mortality) [4] [%] | mortality at 100 ppm (Musca domestica) [%] | activity (mortality in %) (Ctenocephalides felis) [%] |
| --- | --- | --- | --- | --- | --- | --- | --- | --- | --- | --- | --- |
| CCc1cc(C(F)(C(F)(F)F)C(F)(F)F)cc(C)c1NC(=O)c1ccc(-n2cncn2)c(C#N)c1 [Compound 1-49, 3-cyano-N-[2-ethyl-4-(1,1,1,2,3,3,3-heptafluoropropan-2-yl)-6-methylphenyl]-4-(1H-1,2,4-triazol-1-yl)benzamide] | 100 | 100 | 100 | 100 | 95 | 100 |  |  |  |  |  |
| CCc1cc(C(F)(C(F)(F)F)C(F)(F)F)cc(C)c1NC(=O)c1ccc(CNC(=O)c2cccnc2F)c(Cl)c1 [Compound 5-82] |  | 100 |  |  |  |  | 100 | 100 | 95 |  |  |
| CCc1cc(C(F)(C(F)(F)F)C(F)(F)F)cc(C)c1NC(=O)c1ccc(CNC(C)=O)cc1 [Compound 5-28, 4-(acetamidomethyl)-N-[2-ethyl-4-(1,1,1,2,3,3,3-heptafluoro-propan-2-yl)-6-methylphenyl]benzamide] | 100 | 100 |  | 100 | 100 |  |  |  |  |  |  |
| CCc1cc(C(F)(C(F)(F)F)C(F)(F)F)cc(C)c1NC(=O)c1ccc(C#N)c(C)c1 [Compound I-5, 4-cyano-N[2-ethyl-4-(1,1,1,2,3,3,3-heptafluoropropan-2-yl)-6-methylphenyl]-3-methylbenzamide] | 100 |  | 100 | 100 |  | 100 |  |  |  |  |  |
| CCc1cc(C(F)(C(F)(F)F)C(F)(F)F)cc(C)c1NC(=O)c1ccc(-n2cncn2)c([N+](=O)[O-])c1 [Compound 1-39, N-[2-ethyl-4-(1,1,1,2,3,3,3-heptafluoropropan-2-yl)-6-methyl-phenyl]-3-nitro-4-(1H-1,2,4-triazol-1-yl)benzamide] | 100 | 100 |  | 100 | 100 | 100 |  |  |  | 100 |  |
| CCc1cc(C(F)(C(F)(F)F)C(F)(F)F)cc(C)c1NC(=O)c1ccc(-n2cncn2)cc1 [Compound 1-31, N-[2-ethyl-4-(1,1,1,2,3,3,3-heptafluoropropan-2-yl)-6-methylphenyl]-4-(1H-1,2,4-triazol-1-yl)benzamide] | 100 | 100 | 100 | 100 | 90 | 100 |  |  |  |  |  |
| CCc1cc(C(F)(C(F)(F)F)C(F)(F)C(F)(F)F)cc(C)c1NC(=O)c1ccc(CNC(=O)C2CC2)c(Br)c1 (stereo not drawn) [Compound 5-159] |  |  |  |  |  |  | 100 |  |  |  | 98 |
| O=C(Nc1c(Br)cc(C(F)(C(F)(F)F)C(F)(F)F)cc1Br)c1ccc(-n2cncn2)cc1 [Compound 1-78, N-[2,6-dibromo-4-(1,1,1,2,3,3,3-heptafluoropropan-2-yl)-phenyl]-4-(1H-1,2,4-triazol-1-yl)benzamide] | 100 | 100 | 100 | 100 | 100 | 100 |  |  |  | 100 |  |
| CCc1cc(C(F)(C(F)(F)F)C(F)(F)F)cc(C)c1NC(=O)c1ccc(-n2cncn2)c(N)c1 [Compound 1-38, 3-amino-N-[2-ethyl-4-(1,1,1,2,3,3,3-heptafluoropropan-2-yl)-6-methylphenyl]-4-(1H-1,2,4-triazol-1-yl)benzamide] | 100 |  |  | 100 | 100 | 100 |  |  |  |  |  |
| CCC(=O)NCc1ccc(C(=O)Nc2c(C)cc(C(F)(C(F)(F)F)C(F)(F)C(F)(F)F)cc2CC)cc1 (stereo not drawn) [Compound 5-139] |  |  |  |  |  |  | 100 | 100 |  |  | 98 |
| CCc1cc(C(F)(C(F)(F)F)C(F)(F)C(F)(F)F)cc(C)c1NC(=O)c1ccc(CNC(=O)c2cccnc2F)c(F)c1 (stereo not drawn) [Compound 5-174] |  |  |  |  |  |  | 100 | 100 | 95 |  |  |
| CCc1cc(C(F)(C(F)(F)F)C(F)(F)F)cc(C)c1NC(=O)c1ccc(-n2cncn2)c(NC(=O)OC)c1 [Compound 1-47, Methyl[5-{[2-ethyl-4-(1,1,1,2,3,3,3-heptafluoropropan-2-yl)-6methylphenyl]carbamoyl}-2-(1H-1,2,4-triazol-1-yl)phenyl]carbamate] | 100 |  | 100 | 100 | 90 |  |  |  |  |  |  |
| CCc1cc(C(F)(C(F)(F)F)C(F)(F)C(F)(F)F)cc(C)c1NC(=O)c1ccc(CNC(=O)CC(F)(F)F)cc1 (stereo not drawn) [Compound 5-142] |  |  |  |  |  |  | 100 | 100 | 95 |  |  |
| CCc1cc(C(F)(C(F)(F)F)C(F)(F)C(F)(F)F)cc(C)c1NC(=O)c1ccc(CNC(=O)C2CC2)c(F)c1 (stereo not drawn) [Compound 5-146] |  |  |  |  |  |  | 100 |  | 95 |  |  |
| CCc1cc(C(F)(C(F)(F)F)C(F)(F)F)cc(C)c1NC(=O)c1ccc(CN2C(=O)c3ccccc3C2=O)cc1 [Compound F-4, 4-[(1,3-dioxo-1,3-dihydro-2H-isoindol-2-yl)methyl]-N-[2-ethyl-4-(1,1,1,2,3,3,3-hepta-fluoropropan-2-yl)-6-methylphenyl]benzamide] |  |  |  | 100 |  | 90 |  |  |  |  |  |
